Experimental data taken from patent publication EP1027361B1, “6,11-BRIDGED ERYTHROMYCIN DERIVATIVES” (Abbott Laboratories, priority 1997, dated 1999).

What was measured:
Experiment in all cases: in vitro antibacterial activity, agar dilution MIC
Assay type in all cases: cell-based
[1] = system: Streptococcus Pheumoniae ATCC6303; set-up: unit not given here; settings: organism code XX, BHI agar, 35-37 °C, 20 to 24 hours
Procedure: (§1) Erythromycin A was used for this purpose.
(§2) After incubation, each plate was visually inspected.

[2] = system: Staphylococcus aureus ATCC 6538P; set-up: unit not given here; settings: organism code AA, BHI agar, 35-37 °C, 20 to 24 hours
Procedure: as §1, §2

[3] = system: Streptococcus bovis A-5169; set-up: unit not given here; settings: organism code JJ, BHI agar, 35-37 °C, 20 to 24 hours
Procedure: as §1, §2

[4] = system: Streptococcus pyogenes EES61; set-up: unit not given here; settings: organism code LL, BHI agar, 35-37 °C, 20 to 24 hours
Procedure: as §1, §2

[5] = system: Streptococcus agalactiae CMX 508; set-up: unit not given here; settings: organism code KK, BHI agar, 35-37 °C, 20 to 24 hours
Procedure: as §1, §2

[6] = system: Staphylococcus aureus A5177; set-up: unit not given here; settings: organism code BB, BHI agar, 35-37 °C, 20 to 24 hours
Procedure: (§3) Representative compounds of the present invention were assayed in vitro for antibacterial activity as follows: Twelve petri dishes containing successive aqueous dilutions of the test compound mixed with 10 mL of sterilized Brain Heart Infusion (BHI) agar (Difco 0418-01-5) were prepared. Each plate was inoculated with 1:100 (or 1:10 for slow-growing strains, such as Micrococcus and Streptococcus) dilutions of up to 32 different microorganisms, using a Steers replicator block. […] In addition, a control plate, using BHI agar containing no test compound, was prepared and incubated at the beginning and end of each test
(§4) An additional plate containing a compound having known susceptibility patterns for the organisms being tested and belonging to the same antibiotic class as the test compound was also prepared and incubated as a further control, as well as to provide test-to-test comparability.
(§5) After incubation, each plate was visually inspected. The minimum inhibitory concentration (MIC) was defined as the lowest concentration of drug yielding no growth, a slight haze, or sparsely isolated colonies on the inoculum spot as compared to the growth control.

[7] = system: Mycobacterium smegmatis ATCC 114; set-up: unit not given here; settings: organism code UU, BHI agar, 35-37 °C, 20 to 24 hours
Procedure: as §3, §4, §5

[8] = system: Streptococcus pyogenes 930; settings: organism code MM, BHI agar, 35-37 °C, 20 to 24 hours
Procedure: as §3, §4, §5

[9] = system: Streptococcus Pheumoniae 5979; settings: organism code ZZ, BHI agar, 35-37 °C, 20 to 24 hours
Procedure: as §3, §4, §5

[10] = system: Streptococcus pyogenes PIU 2548; settings: organism code NN, BHI agar, 35-37 °C, 20 to 24 hours
Procedure: as §3, §4, §5

[11] = system: Staphylococcus aureus 1775; settings: organism code GG, BHI agar, 35-37 °C, 20 to 24 hours
Procedure: as §3, §4, §5

Escherichia coli DC-2 = settings: organism code SS, BHI agar, 35-37 °C, 20 to 24 hours
Procedure: as §3, §4, §5

[12] = system: Staphylococcus aureus A-5278; settings: organism code CC, BHI agar, 35-37 °C, 20 to 24 hours
Procedure: as §3, §4, §5

Candida albicans CCH 442 = settings: organism code TT, BHI agar, 35-37 °C, 20 to 24 hours
Procedure: as §3, §4, §5

[13] = system: Enterococcus faecium ATCC 8043; settings: organism code II, BHI agar, 35-37 °C, 20 to 24 hours
Procedure: as §1, §2

[14] = system: Nocardia Asteroides ATCC9970; settings: organism code VV, BHI agar, 35-37 °C, 20 to 24 hours
Procedure: as §1, §2

[15] = system: Staphylococcus aureus NCTC10649M; settings: organism code EE, BHI agar, 35-37 °C, 20 to 24 hours
Procedure: as §1, §2

[16] = system: Staphylococcus epidermidis 3519; settings: organism code HH, BHI agar, 35-37 °C, 20 to 24 hours
Procedure: as §1, §2

Escherichia coli SS = settings: organism code RR, BHI agar, 35-37 °C, 20 to 24 hours
Procedure: as §1, §2

Escherichia coli JUHL = settings: organism code QQ, BHI agar, 35-37 °C, 20 to 24 hours
Procedure: as §1, §2

[17] = system: Micrococcus luteus ATCC 4698; settings: organism code PP, BHI agar, 35-37 °C, 20 to 24 hours
Procedure: as §1, §2

[18] = system: Streptococcus Pheumoniae GYR 1171; settings: organism code YY, BHI agar, 35-37 °C, 20 to 24 hours
Procedure: as §1, §2

[19] = system: Streptococcus Pheumoniae 5649; settings: organism code ZZA, BHI agar, 35-37 °C, 20 to 24 hours
Procedure: as §1, §2

[20] = system: Haemophilis Influenzae DILL AMP R; settings: organism code WW, BHI agar, 35-37 °C, 20 to 24 hours
Procedure: as §1, §2

[21] = system: Staphylococcus aureus CMX 553; settings: organism code FF, BHI agar, 35-37 °C, 20 to 24 hours
Procedure: as §1, §2

[22] = system: Staphylococcus aureus CMX 642A; settings: organism code DD, BHI agar, 35-37 °C, 20 to 24 hours
Procedure: as §1, §2

[23] = system: Micrococcus luteus ATCC 9341; settings: organism code OO, BHI agar, 35-37 °C, 20 to 24 hours
Procedure: as §1, §2

## CC[C@H]1OC(=O)[C@H](C)C(=O)[C@H](C)[C@@H](O[C@@H]2O[C@H](C)C[C@H](N(C)C)[C@H]2O)[C@@]2(C)C[C@@H](C)C(=O)[C@H](C)[C@H]3N(CCOCc4ccccc4C=CCO2)C(=O)O[C@]13C [Example 12, Compound of Formula (II), R^p is H, m is 2, A is -O-, B is-(CH2)q-, q is 1, D is 1,2-phenylene, E is-(CH2)r-CH=CH-, r is 0, n is 1]
[1]
  minimum inhibitory concentration (MIC): 0.25
[2]
  minimum inhibitory concentration (MIC): 0.78
[3]
  minimum inhibitory concentration (MIC): 0.05
[4]
  minimum inhibitory concentration (MIC): 0.05
[5]
  minimum inhibitory concentration (MIC): 0.1
[6]
  minimum inhibitory concentration (MIC): 0.78
[7]
  minimum inhibitory concentration (MIC): 0.78
[8]
  minimum inhibitory concentration (MIC): 50
[9]
  minimum inhibitory concentration (MIC): 128
[10]
  minimum inhibitory concentration (MIC): 0.39
[11]
  minimum inhibitory concentration (MIC): >100
Escherichia coli DC-2
  minimum inhibitory concentration (MIC): >100
[12]
  minimum inhibitory concentration (MIC): >100
Candida albicans CCH 442
  minimum inhibitory concentration (MIC): >100
[13]
  minimum inhibitory concentration (MIC): 0.1
[14]
  minimum inhibitory concentration (MIC): 0.78
[15]
  minimum inhibitory concentration (MIC): 0.78
[16]
  minimum inhibitory concentration (MIC): 0.78
Escherichia coli SS
  minimum inhibitory concentration (MIC): 1.56
Escherichia coli JUHL
  minimum inhibitory concentration (MIC): >100
[17]
  minimum inhibitory concentration (MIC): 0.39
[18]
  minimum inhibitory concentration (MIC): 0.125
[19]
  minimum inhibitory concentration (MIC): 1
[20]
  minimum inhibitory concentration (MIC): 16
[21]
  minimum inhibitory concentration (MIC): 0.78
[22]
  minimum inhibitory concentration (MIC): 0.78
[23]
  minimum inhibitory concentration (MIC): 0.2

## CC[C@H]1OC(=O)[C@H](C)[C@@H](O[C@H]2C[C@@](C)(OC)[C@@H](O)[C@H](C)O2)[C@H](C)[C@@H](O[C@@H]2O[C@H](C)C[C@H](N(C)C)[C@H]2O)[C@@]2(C)C[C@@H](C)C(=O)[C@H](C)[C@H]3N(CCNCc4cccc(c4)C=CCO2)C(=O)O[C@]13C [Example 11, Compound of Formula (I), 2'-R^p is H, 4"-R^p is H, m is 2, A is NH, B is-(CH2)q-, q is 1, D is 1,3-phenylene, E is-(CH2)r-CH=CH-, r is 0, n is 1]
[1]
  minimum inhibitory concentration (MIC): 0.12
[2]
  minimum inhibitory concentration (MIC): 3.1
[3]
  minimum inhibitory concentration (MIC): 0.1
[4]
  minimum inhibitory concentration (MIC): 0.2
[5]
  minimum inhibitory concentration (MIC): 0.1
[6]
  minimum inhibitory concentration (MIC): 50
[7]
  minimum inhibitory concentration (MIC): 0.2
[8]
  minimum inhibitory concentration (MIC): >100
[9]
  minimum inhibitory concentration (MIC): >128
[10]
  minimum inhibitory concentration (MIC): 12.5
[11]
  minimum inhibitory concentration (MIC): >100
Escherichia coli DC-2
  minimum inhibitory concentration (MIC): >100
[12]
  minimum inhibitory concentration (MIC): >100
Candida albicans CCH 442
  minimum inhibitory concentration (MIC): >100
[13]
  minimum inhibitory concentration (MIC): 0.2
[14]
  minimum inhibitory concentration (MIC): 0.2
[16]
  minimum inhibitory concentration (MIC): 3.1
Escherichia coli SS
  minimum inhibitory concentration (MIC): 6.2
Escherichia coli JUHL
  minimum inhibitory concentration (MIC): >100
[17]
  minimum inhibitory concentration (MIC): 3.1
[18]
  minimum inhibitory concentration (MIC): 0.25
[19]
  minimum inhibitory concentration (MIC): 32
[20]
  minimum inhibitory concentration (MIC): 32
[21]
  minimum inhibitory concentration (MIC): 3.1
[22]
  minimum inhibitory concentration (MIC): 3.1
[23]
  minimum inhibitory concentration (MIC): 0.2

## CC[C@H]1OC(=O)[C@H](C)[C@@H](O[C@H]2C[C@@](C)(OC)[C@@H](O)[C@H](C)O2)[C@H](C)[C@@H](O[C@@H]2O[C@H](C)C[C@H](N(C)C)[C@H]2O)[C@@]2(C)C[C@@H](C)C(=O)[C@H](C)[C@H]3N(CCNC(=O)c4ccccc4C=CCO2)C(=O)O[C@]13C [Example 4, Compound of Formula (I), 2'-R^p is H, 4"-R^p is H, m is 2, A is NH, B is -C(O)-(CH2)q-, q is 0, D is 1,2-phenylene, E is-(CH2)r-CH=CH-, r is 0, n is 1]
[1]
  minimum inhibitory concentration (MIC): 0.03
[2]
  minimum inhibitory concentration (MIC): 1.56
[3]
  minimum inhibitory concentration (MIC): 0.2
[4]
  minimum inhibitory concentration (MIC): 0.39
[5]
  minimum inhibitory concentration (MIC): 0.2
[6]
  minimum inhibitory concentration (MIC): 25
[7]
  minimum inhibitory concentration (MIC): 3.1
[8]
  minimum inhibitory concentration (MIC): >100
[9]
  minimum inhibitory concentration (MIC): >128
[10]
  minimum inhibitory concentration (MIC): 12.5
[11]
  minimum inhibitory concentration (MIC): >100
Escherichia coli DC-2
  minimum inhibitory concentration (MIC): >100
[12]
  minimum inhibitory concentration (MIC): >100
Candida albicans CCH 442
  minimum inhibitory concentration (MIC): >100
[13]
  minimum inhibitory concentration (MIC): 0.39
[14]
  minimum inhibitory concentration (MIC): 0.2
[16]
  minimum inhibitory concentration (MIC): 1.56
Escherichia coli SS
  minimum inhibitory concentration (MIC): 6.2
Escherichia coli JUHL
  minimum inhibitory concentration (MIC): 100
[17]
  minimum inhibitory concentration (MIC): 1.56
[18]
  minimum inhibitory concentration (MIC): 0.03
[19]
  minimum inhibitory concentration (MIC): 16
[20]
  minimum inhibitory concentration (MIC): 16
[21]
  minimum inhibitory concentration (MIC): 1.56
[22]
  minimum inhibitory concentration (MIC): 1.56
[23]
  minimum inhibitory concentration (MIC): 0.2

## CC[C@H]1OC(=O)[C@H](C)[C@@H](O[C@H]2C[C@@](C)(OC)[C@@H](O)[C@H](C)O2)[C@H](C)[C@@H](O[C@@H]2O[C@H](C)C[C@H](N(C)C)[C@H]2O)[C@](C)(O)C[C@@H](C)C(=O)[C@H](C)[C@@H](O)[C@]1(C)O [Ery. A, Erythromycin A, reference compound]
[1]
  minimum inhibitory concentration (MIC): 0.06
[2]
  minimum inhibitory concentration (MIC): 0.2
[3]
  minimum inhibitory concentration (MIC): 0.02
[4]
  minimum inhibitory concentration (MIC): 0.05
[5]
  minimum inhibitory concentration (MIC): 0.05
[6]
  minimum inhibitory concentration (MIC): 3.1
[7]
  minimum inhibitory concentration (MIC): 3.1
[8]
  minimum inhibitory concentration (MIC): >100
[10]
  minimum inhibitory concentration (MIC): 6.2
[11]
  minimum inhibitory concentration (MIC): >100
Escherichia coli DC-2
  minimum inhibitory concentration (MIC): >100
[12]
  minimum inhibitory concentration (MIC): >100
Candida albicans CCH 442
  minimum inhibitory concentration (MIC): >100
[13]
  minimum inhibitory concentration (MIC): 0.05
[14]
  minimum inhibitory concentration (MIC): 0.1
[15]
  minimum inhibitory concentration (MIC): 0.39
[16]
  minimum inhibitory concentration (MIC): 0.39
Escherichia coli SS
  minimum inhibitory concentration (MIC): 0.78
Escherichia coli JUHL
  minimum inhibitory concentration (MIC): >100
[17]
  minimum inhibitory concentration (MIC): 0.2
[18]
  minimum inhibitory concentration (MIC): 0.06
[19]
  minimum inhibitory concentration (MIC): 16
[20]
  minimum inhibitory concentration (MIC): 4
[21]
  minimum inhibitory concentration (MIC): 0.39
[22]
  minimum inhibitory concentration (MIC): 0.39
[23]
  minimum inhibitory concentration (MIC): 0.05
